Values belong to the molecule of their own block, whether it stands above or below them.
Legend:
[1] = biological target: 2-hydroxybiphenyl 3-monooxygenase (HbpA) from Pseudomonas azelaica HBP1 (Pseudomonas azelaica HBP1); experiment: crystal structure; P1 crystals with four molecules in the asymmetric unit (one tetramer); apo form and FAD complex (crystals soaked in 1 mM FAD); grown in 18 % PEG 3350, 0.15 M KSCN, Bis-Tris propane pH 5.5, protein 10 mg/mL
[2] = biological target: T1, HbpA; 2-hydroxybiphenyl 3-monooxygenase (Pseudomonas nitroreducens, UniProt O06647); experiment: UV spectrophotometry of NADH oxidation at […] nm; assay type: biochemical; conditions: co-substrate NADH; air-saturated buffer; read-out: WT
T1 construct: full length with uncleaved N-terminal His6 tag, spacer and 3C site (21 residues longer than native); pET-YSBLIC-3C, E. coli BL21(DE3); homotetramer; tag not removed for crystals
T1 sequence (O06647 1-586): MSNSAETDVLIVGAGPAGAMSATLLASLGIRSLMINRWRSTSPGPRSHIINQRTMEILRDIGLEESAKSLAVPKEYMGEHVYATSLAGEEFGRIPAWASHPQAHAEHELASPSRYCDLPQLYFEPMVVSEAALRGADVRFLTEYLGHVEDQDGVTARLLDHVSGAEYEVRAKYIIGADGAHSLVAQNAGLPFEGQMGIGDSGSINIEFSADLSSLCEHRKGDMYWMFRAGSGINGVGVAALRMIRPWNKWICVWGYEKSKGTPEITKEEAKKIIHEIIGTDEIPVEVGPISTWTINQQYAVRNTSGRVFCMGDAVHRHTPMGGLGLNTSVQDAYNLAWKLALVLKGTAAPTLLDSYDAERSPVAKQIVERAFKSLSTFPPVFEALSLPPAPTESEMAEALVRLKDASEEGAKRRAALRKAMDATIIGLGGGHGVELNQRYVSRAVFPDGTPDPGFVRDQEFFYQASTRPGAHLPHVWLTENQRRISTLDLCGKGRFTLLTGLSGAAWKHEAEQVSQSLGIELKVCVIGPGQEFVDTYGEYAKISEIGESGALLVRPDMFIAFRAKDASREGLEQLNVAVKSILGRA

[3] = biological target: T1, HbpA; 2-hydroxybiphenyl 3-monooxygenase; experiment: X-ray crystal structure, […] Å, FAD soak; assay type: binding; conditions: crystals soaked in 1 mM FAD; flavin in the "in" position

- stoichiometry N [1]: 4
Molecule: 2-hydroxybiphenyl 3-monooxygenase (HbpA) from Pseudomonas azelaica HBP1 (enzyme)

Molecule: Oc1ccccc1-c1ccccc1 [2HBP]
- Km [2]: 3.3 ± 0.2 µM

Molecule: Cc1cc2nc3c(=O)[nH]c(=O)nc-3n(C[C@H](O)[C@H](O)[C@H](O)COP(=O)(O)OP(=O)(O)OC[C@H]3O[C@@H](n4cnc5c(N)ncnc54)[C@H](O)[C@@H]3O)c2cc1C [FAD]
- X-ray crystal structure, 2.03 Å, FAD soak [3]: both apo-HbpA and the FAD complex have been deposited in the Protein Data Bank
